pIC50: −log10 of the molar value.
Test system: IL-1β production in PMA-differentiated THP-1 cells
Test: IL-1β production in PMA-differentiated THP-1 cells stimulated with gramicidin (hTHP-1 assay, 2% fetal bovine serum)
Type: cell-based
Details: Homo sapiens, hTHP-1 assay containing 2% fetal bovine serum
Protocol: THP-1 cells were purchased from the American Type Culture Collection and sub-cultured according to instructions from the supplier. Cells were cultured in complete RPMI 1640 (containing 10% heat inactivated FBS, penicillin (100 units/ml) and streptomycin (100 μg/ml)), and maintained in log phase prior to experimental setup. Prior to the experiment, compounds were dissolved in dimethyl sulfoxide (DMSO) to generate a 30 mM stock. The compound stock was first pre-diluted in DMSO to 3, 0.34, 0.042 and 0.0083 mM intermediate concentrations and subsequently spotted using Echo550 liquid handler into an empty 384-well assay plate to achieve desired final concentration (e.g. 100, 33, 11, 3.7, 1.2, 0.41, 0.14, 0.046, 0.015, 0.0051, 0.0017 μM). DMSO was backfilled in the plate to achieve a final DMSO assay concentration of 0.37%. The plate was then sealed and stored at room temperature until required.
THP-1 cells were treated with PMA (Phorbol 12-myristate 13-acetate) (20 ng/ml) for 16-18 hours. On the day of the experiment the media was removed and adherent cells were detached with trypsin for 5 minutes. Cells were then harvested, washed with complete RPMI 1640, spun down, and resuspended in RPMI 1640 (containing 2% heat inactivated FBS, penicillin (100 units/ml) and streptomycin (100 μg/ml). The cells were plated in the 384-well assay plate containing the spotted compounds at a density of 50,000 cells/well (final assay volume 50 μl). Cells were incubated with compounds for 1 hour and then stimulated with gramicidin (5 μM) (Enzo) for 2 hours. Plates were then centrifuged at 340 g for 5 min. Cell free supernatant (40 μL) was collected using a 96-channel PlateMaster (Gilson) and the production of IL-1β was evaluated by HTRF (cisbio). The plates were incubated for 18 h at 4° C. and read using the preset HTRF program (donor emission at 620 nm, acceptor emission at 668 nm) of the SpectraMax i3x spectrophotometer (Molecular Devices, software SoftMax 6). A vehicle only control and a dose titration of CRID3 (100-0.0017 μM) were run concurrently with each experiment. […]

| pIC50 | SMILES |
| --- | --- |
| 6.70 to 7.40 | CC(C)(O)c1ncc(S(N)(=O)=NC(=O)Nc2c3c(cc4c2CCC4)CCC3)s1 (centres unmarked) [Compound I, N′-(1,2,3,5,6,7-hexahydro-s-indacen-4-ylcarbamoyl)-2-(2-hydroxypropan-2-yl) thiazole-5-sulfonimidamide] |
| 6.00 to 6.70 | CC(C)(O)c1ncc([S@@](N)(=O)=NC(=O)Nc2c3c(cc4c2CCC4)CCC3)s1 [Compound IB, (S)-N′-((1,2,3,5,6,7-hexahydro-s-indacen-4-yl)carbamoyl)-2-(2-hydroxypropan-2-yl) thiazole-5-sulfonimidamide] |

Reference: patent US20250082611A1, “DOSING REGIMEN FOR AN NLRP3 INHIBITOR IN THE TREATMENT OF OSTEOARTHRITIS” (Novartis AG, priority 2021, published 2025)
